Experimental data as given in PubChem BioAssay AID1963438 (Molecular Pharmacology Branch, DTP, NCI, 2024).

Test system: NCI-H510 multicellular tumor spheroid growth, % test/control
Experiment: Anticancer human tumor NCI-H510 cell line growth inhibition [Asc];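 further: spheroids exposed to agents for 7 days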;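 on viability, T/C: 100% = DMSO vehicle control wells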
Settings: for IC50: curve of first compound; for viability, T/C: stronger effect = lower value
In short: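 Complex solid-tumor spheroids incorporating human endothelial and mesenchymal stem cells received single agents or combinations over half-log dilution ranges anchored to clinical Cmax.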

IC50 (second compound 0.03 µM): > 10 µM | IC50 (second compound 0.0949 µM): > 10 µM | IC50 (second compound 0.3 µM): > 10 µM | IC50 (second compound 0.949 µM): > 10 µM | IC50 (second compound 3 µM): > 10 µM
SMILES: C#Cc1c(F)ccc2cc(O)cc(-c3ncc4c(N5CC6CCC(C5)N6)nc(OCC56CCCN5CC(F)C6)nc4c3F)c12 (stereo not given) + CCN1C(C(=O)NC23CCC(C(=O)O)(CC2)CC3)C(c2cccc(Cl)c2F)C2(C(=O)Nc3cc(Cl)ccc32)C12CCCCC2
viability, T/C (second compound 0.03 µM, first compound 0.0316 µM): 118% | viability, T/C (second compound 0.03 µM, first compound 0.1 µM): 98.2% | viability, T/C (second compound 0.03 µM, first compound 0.316 µM): 92.6% | viability, T/C (second compound 0.03 µM, first compound 1 µM): 92.1% | viability, T/C (second compound 0.03 µM, first compound 3.16 µM): 105% | viability, T/C (second compound 0.03 µM, first compound 10 µM): 110% | viability, T/C (second compound 0.0949 µM, first compound 0.0316 µM): 93.8% | viability, T/C (second compound 0.0949 µM, first compound 0.1 µM): 100% | viability, T/C (second compound 0.0949 µM, first compound 0.316 µM): 103% | viability, T/C (second compound 0.0949 µM, first compound 1 µM): 100% | viability, T/C (second compound 0.0949 µM, first compound 3.16 µM): 103% | viability, T/C (second compound 0.0949 µM, first compound 10 µM): 95.4% | viability, T/C (second compound 0.3 µM, first compound 0.0316 µM): 109% | viability, T/C (second compound 0.3 µM, first compound 0.1 µM): 113% | viability, T/C (second compound 0.3 µM, first compound 0.316 µM): 92.5% | viability, T/C (second compound 0.3 µM, first compound 1 µM): 107% | viability, T/C (second compound 0.3 µM, first compound 3.16 µM): 91.4% | viability, T/C (second compound 0.3 µM, first compound 10 µM): 87.6% | viability, T/C (second compound 0.949 µM, first compound 0.0316 µM): 93% | viability, T/C (second compound 0.949 µM, first compound 0.1 µM): 108% | viability, T/C (second compound 0.949 µM, first compound 0.316 µM): 98% | viability, T/C (second compound 0.949 µM, first compound 1 µM): 109% | viability, T/C (second compound 0.949 µM, first compound 3.16 µM): 106% | viability, T/C (second compound 0.949 µM, first compound 10 µM): 95.1% | viability, T/C (second compound 3 µM, first compound 0.0316 µM): 110% | viability, T/C (second compound 3 µM, first compound 0.1 µM): 107% | viability, T/C (second compound 3 µM, first compound 0.316 µM): 114% | viability, T/C (second compound 3 µM, first compound 1 µM): 99.9% | viability, T/C (second compound 3 µM, first compound 3.16 µM): 101% | viability, T/C (second compound 3 µM, first compound 10 µM): 102%
